{"source": "paper PMC8241751", "about": "“Influence of the Dabcyl group on the cellular uptake of cationic peptides: short oligoarginines as efficient cell-penetrating peptides” (Amino Acids, 2021)", "key": {"[1]": {"tested_on": "CHO-K1 cells", "assay": "In vitro cytotoxicity assay (CCK-8)", "type": "cell-based, Chinese Hamster", "details": "different concentrations (0-20 µM), 1 h, 37 °C", "description": "Cytotoxicity was determined with the Cell Counting Kit 8 (CCK-8) from Dojindo Molecular Technologies using CHO-K1 cells. This colorimetric assay allows to measure the viability of cells. 96-well plates were inoculated with 100 μL/well of a suspension of cells (2 × 10^4 cells/well). […] After washing, the cells were incubated with 100 μL of 10% CCK-8 in DMEM for 3 h and the absorbance was measured at λ= 450 nm with a microplate reader (Polarstar Optima). Controls corresponded to untreated cells with DMEM (negative control, 100% viability) and cells treated with 0.1% of Triton X-100 (positive control, 0% viability)."}, "[2]": {"tested_on": "HL-60 cells", "assay": "Cellular uptake by flow cytometry on HL-60 cells", "type": "cell-based, human", "details": "90 min, 37 °C, serum-free", "description": "HL-60 cells were cultured as described above. To study the cellular uptake of fluorescent labelled compounds, 10^5 cells per well were plated on 24-well plates. After 24 h incubation at 37 °C, cells were treated with the compounds solved in the corresponding serum-free media for 90 min. The cellular uptake was analysed at 1, 5 and 10 µM concentrations. Cells treated with serum-free media for 90 min were used as control. After incubation, treatment solutions were removed and the cells were treated with 100 μL trypsin for 2 min to remove the membrane proteins in order to eliminate non-specific binding of conjugates. The effect of trypsin was terminated by 900 μL HPMI (glucose, NaHCO3, NaCl, HEPES, KCl, MgCl2, CaCl2, Na2HPO4·2H2O) (Kapus et al. [1994]) containing 10% foetal calf serum, and the cells were transferred from the plate to FACS-tubes. Cells were centrifuged at 216 g at 4 °C for 5 min and the supernatant was removed. After this procedure, cells were resuspended in 500 µL HPMI, and the intracellular fluorescence intensity of HL-60 cells was monitored (on channel FITC LP505; emission at λ = 505 nm; LP 505, BP 530/30) by flow cytometry (BD LSR II, BD Bioscience, San Jose, CA, equipped with 488 nm; Coherent Sapphire, 22 mW laser.) which is proportional to the cellular uptake. Data were analysed with FACSDiVa 5.0 software."}, "[3]": {"tested_on": "CHO-K1 cells", "assay": "Relative quantification of total internalised peptide by flow cytometry", "details": "CHO-K1, 1 h, DMEM-F12, internalisation ratio by flow cytometry, intact cells, 20.000 cells", "description": "After incubation and washing the cells with HBSS, 500 μL 0.05% trypsin/EDTA 0.05% (37 °C) or 500 µL pronase 0.05% in 100 mM Tris-buffer (4 °C) was added for 5 min to hydrolyze the remaining extracellular peptide, the membrane-bound peptide and to detach cells. After addition of 100 µL enzyme inhibitors (complete mini at 4 °C (Roche) or trypsin inhibitor (soybean inhibitor 5 mg/mL) at 37 °C mixed with 100 μL bovine serum albumin (1 mg/mL). Cells were transferred into a microtube, centrifuged, washed with 1 mL 50 mM Tris-buffer pH 7.4, 0.1% BSA, and the cell pellet was suspended in 400 μL of PBS. The fluorescence of individual cells was analysed with a FACS Calibur flow cytometer. 20.000 cells were measured for each experimental condition. The mean fluorescence of a sample was obtained by subtracting the autofluorescence of cells from the measured mean fluorescence of cells in the presence of the peptide."}, "[4]": {"tested_on": "HL-60 cells", "assay": "In vitro cytostatic activity (MTT) on HL-60", "type": "cell-based, human", "details": "HL-60; 3 h incubation, then 3 days in serum-containing medium; MTT assay; ± sd, three independent experiments with four parallels", "description": "The cells (HL-60 or MCF-7) were grown to confluency and were plated into 96-well plate with initial cell number of 5 × 10^3 per well. After 24 h incubation at 37 °C, cells were treated with the compounds at 1.28 × 10^–3–100 μM concentration range for 3 h in 200 μL final volume. Control cells were treated with serum free medium at 37 °C for 3 h. After incubation the cells were washed twice with serum free medium. For the analysis of the in vitro cytostatic effect, cells were cultured for an additional 72 h in serum containing medium. On day 4, MTT assay was carried out to determine the IC50 values of the compounds. Briefly, 45 μL of MTT solution was added to each well (2 mg/mL, dissolved in serum-free medium). Following the 4 h incubation, plates were centrifuged at 900 g for 5 min, and the supernatant was removed. The precipitated purple crystals were dissolved in 100 μL DMSO and the absorbance was determined at λ = 540 nm and λ = 620 nm using ELISA plate reader (iEMSReader, Labsystems, Finland). The percent of cytostasis was calculated using the following equation: Cytostatic effect (%) = [1 − (ODtreated/ODcontrol)] × 100; where ODtreated and ODcontrol correspond to the optical densities of the treated and the untreated control cells, respectively. In each case three independent experiments were carried out with four parallel measurements. […] The curves were defined using MicrocalTM Origin (version 9.2) software: cytostasis was plotted as a function of concentration, fitted to a sigmoidal curve, and based on this curve, the IC50 value was determined."}, "[5]": {"tested_on": "HeLa cells", "assay": "Confocal microscopy of internalisation into HeLa cells", "type": "cell-based, human", "details": "5 μM, serum free (–) medium, 37 °C", "description": "HeLa cells (2.0 × 10^5 cells) seeded in 35-mm glass-bottomed dishes (Iwaki) were cultured at a 37 °C incubator for 24 h. The cells were then incubated with peptide in α-MEM( +) and α-MEM(–) for 30 min at 37 °C or 4 °C. After washing with PBS( +) containing 0.5% (w/v) heparin, intracellular distribution of the fluorescently-labelled peptides was analysed without fixing using a confocal microscope (FV1000, Olympus). For time-lapse imaging, the cells were placed at 37 °C in a microchamber (MI-IBC-IF, Olympus) attached on the stage of the inverted microscope. The cells were then treated with 5 µM of Dabcyl–Arg6–Lys(Rh)–NH2 or Dabcyl–Arg4–Lys(Cf)–NH2 in α-MEM( +) or α-MEM(–). Time 0 represents the image immediately after the addition of conjugates."}}, "note": "Where a SMILES comes first, the peptide text is derived from it. The star is where a group is joined. 5FAM = O=C1OC2(c3ccc(O)cc3Oc3cc(O)ccc32)c2ccc(C(=O)*)cc21; X1 = CN(C)c1ccc(/N=N/c2ccc(C(=O)*)cc2)cc1", "data": [{"smiles": "CN(C)c1ccc(/N=N/c2ccc(C(=O)N[C@@H](CCCNC(=N)N)C(=O)N[C@@H](CCCNC(=N)N)C(=O)N[C@@H](CCCNC(=N)N)C(=O)N[C@@H](CCCNC(=N)N)C(=O)N[C@@H](CCCNC(=N)N)C(=O)N[C@@H](CCCNC(=N)N)C(=O)N[C@@H](CCCCNC(=O)c3ccc4c(c3)C(=O)OC43c4ccc(O)cc4Oc4cc(O)ccc43)C(N)=O)cc2)cc1", "note": "[Dabcyl–Arg6–Lys(Cf)–NH2] (X1-RRRRRRK(5FAM)-NH2)", "values": [{"measurement": "Cytotoxic effect on CHO-K1 cells", "setting": "[1]", "value": "no cytotoxic effect"}, {"measurement": "Cellular uptake, times higher than that of octaarginine", "setting": "[2]; HL-60, 5 μM", "value": 4, "unit": "times"}, {"measurement": "Cellular uptake, times higher than that of octaarginine", "setting": "[2]; HL-60, 10 μM", "value": 1.5, "unit": "times"}, {"measurement": "4 °C/37 °C (Flow cyto.)", "setting": "[3]; [peptide] 1 μM", "value": 0.14}, {"measurement": "4 °C/37 °C (Flow cyto.)", "setting": "[3]; [peptide] 2.5 μM", "value": 0.04}, {"measurement": "4 °C/37 °C (Flow cyto.)", "setting": "[3]; [peptide] 5 μM", "value": 0.05}, {"measurement": "4 °C/37 °C (Flow cyto.)", "setting": "[3]; [peptide] 10 μM", "value": 0.04}, {"measurement": "IC50", "setting": "[4]", "value": "21.8 ± 8.2", "unit": "µM"}, {"measurement": "Time of binding to the cell membrane", "setting": "[5]", "value": 0.5, "unit": "min"}, {"measurement": "Time of internalisation", "setting": "[5]", "value": "≤ 1.5", "unit": "min"}]}]}
